Test results: patent US20230217926A1, “SELECTIVE HERBICIDES BASED ON SUBSTITUTED ISOXAZOLIN CARBOXAMIDES AND ISOXADIFEN-ETHYL” (BAYER AKTIENGESELLSCHAFT, priority 2020, published 2023)

Columns and labels:
ZEAMA Abraxas = assay: Tank-mix post-emergence crop damage, greenhouse, visual assessment; assay type: in vivo, maize; design: key to Reduction [Difference]: % injury reduction: damage without minus with safener (0–100% scale); settings: for HER effect + SAF / Reduction [%] / Reduction [Difference]: Final; for HER effect: no safener, Final assessment
Method: (§1) Seeds of crops (spring wheat, TRZAS; spring barley, HORVS; maize, ZEAMA) were placed in sandy loam soil in peat pots, covered with soil and cultivated in a greenhouse under good growth conditions. Two to three weeks after sowing, the test plants were treated at the 1 to 3-leaf stage. The herbicide/safener active compound combinations according to the invention, formulated as wettable powders or emulsion concentrates, and, in parallel tests, the correspondingly formulated individual active compounds were sprayed onto the green parts of the plants in various dosages using an amount of water of 300 l/ha (converted).
(§2) The pots were returned under good growing conditions in a glasshouse and a visual assessment of herbicidal effects was made at intervals from 1 to 3 weeks after herbicide application (DAT=days after treatment). Assessment was on a percentage basis in comparison with untreated control plants (0%=no injury, 100%=complete kill).
(§3) Reduction[Difference]=herbicide damage without safener−herbicide damage with safener Reduction[%]=(Reduction[Difference]*100)/herbicide damage without safener
b) Plant Species, Variety: ZEAMA Abraxas, Safener (SAF): Isoxadifen-Ethyl

TRZAS Triso = assay: Safener seed treatment, pre-emergence herbicide, crop damage; assay type: in vivo, spring wheat; design: key to Reduction [Difference]: % crop damage without safener minus % damage with safener; settings: HER 15 g a.i./ha pre-emergence; for Reduction [%] / Reduction [Difference]: isoxadifen-ethyl 0.25 g a.i./kg seed; for HER effect + SAF: isoxadifen-ethyl seed treatment 0.25 g a.i./kg seed; for HER effect: no safener
Method: (§4) For the safener seed treatment, sufficient seeds of the respective crops (spring wheat, TRZAS; spring barley, HORVS; maize, ZEAMA) were weighed into screw top glass bottles approximately twice the volume of the seeds.
(§5) The specified safeners, formulated as wettable powder (WP) were weighed out so that the specified rates (g a.i./kg seed) would be obtained, dissolved in water (1 ml water per 10 g of seeds), and added to the seeds to produce a slurry.
(§6) The bottles were capped and then placed in an overhead shaker (set at medium speed for ca. 60 minutes) so that the seeds were evenly coated with the slurry. The bottles were uncapped and the seeds were either placed on paper and dried for an interval of 3-4 hours prior to sowing, or directly sown. Seeds were placed in sandy loam soil in pots of a diameter of 7-8 cm, and covered with soil.
(§7) Pre-emergence application of the specified herbicides was done subsequently, on two sets of plants: a) seed treatment with safener, as described above
(§8) The herbicides were formulated as WP and was sprayed onto the soil surface as an aqueous suspension at an equivalent water application rate of 300 l/ha.
(§9) After application, the test plants were kept in the greenhouse under good growth conditions. At intervals up to 4 weeks after application (=28 days after treatment; DAT), % crop damage observed on the treated plants was scored visually in comparison to control plants that had not received any safener or herbicide treatment.
(§10) Values in the table below are mean values of at least 2 replicates.
Reduction[Difference]=herbicide damage without safener−herbicide damage with safener Reduction[%]=(Reduction[Difference]*100)/herbicide damage without safener a) Plant Species, Variety: TRZAS Triso, Safener (SAF): Isoxadifen-Ethyl

HORVS Montoya = assay: as above; assay type: in vivo, spring barley; design: key to Reduction [Difference]: % crop damage without safener minus % damage with safener; settings: for Reduction [%] / Reduction [Difference]: isoxadifen-ethyl 0.25 g a.i./kg seed; for HER effect + SAF: isoxadifen-ethyl seed treatment 0.25 g a.i./kg seed; for HER effect: no safener
Method: as §4, §5, §6, §7, §8, §9, §10
Reduction[Difference]=herbicide damage without safener−herbicide damage with safener Reduction[%]=(Reduction[Difference]*100)/herbicide damage without safener b) Plant Species, Variety: HORVS Montoya, Safener (SAF): Isoxadifen-Ethyl

ZEAMA Sileno [1] = assay: Tank-mix post-emergence crop damage, greenhouse, visual assessment; assay type: in vivo, maize; design: key to Reduction [Difference]: % points: herbicide damage without safener − damage with safener; settings: for HER effect + SAF / Reduction [%] / Reduction [Difference]: Final; for HER effect: no safener, Final assessment
Method: as §1, §2, §3
a) Plant Species, Variety: ZEAMA Sileno, Safener (SAF): Isoxadifen-Ethyl

ZEAMA Sileno [2] = assay: Safener seed treatment, pre-emergence herbicide, crop damage; assay type: in vivo, maize; design: key to Reduction [Difference]: % crop damage without safener minus % damage with safener; settings: HER 80 g a.i./ha pre-emergence; for Reduction [%] / Reduction [Difference]: isoxadifen-ethyl 0.25 g a.i./kg seed; for HER effect + SAF: isoxadifen-ethyl seed treatment 0.25 g a.i./kg seed; for HER effect: no safener
Method: as §4, §5, §6, §7, §8, §9, §10
Reduction[Difference]=herbicide damage without safener−herbicide damage with safener Reduction[%]=(Reduction[Difference]*100)/herbicide damage without safener […]
c) Plant Species, Variety: ZEAMA Sileno, Safener (SAF): Isoxadifen-Ethyl

[3] = HER 8 g a.i./ha + isoxadifen-ethyl 50 g a.i./ha
[4] = HER 8 g a.i./ha, isoxadifen-ethyl 50 g a.i./ha
[5] = HER 32 g a.i./ha + isoxadifen-ethyl 100 g a.i./ha
[6] = HER 32 g a.i./ha, isoxadifen-ethyl 100 g a.i./ha
[7] = HER 5 g a.i./ha pre-emergence, 21 DAT (Final)
[8] = HER 15 g a.i./ha pre-emergence, 21 DAT (Final)
[9] = HER 2 g a.i./ha, isoxadifen-ethyl 100 g a.i./ha
[10] = HER 15 g a.i./ha pre-emergence, 11 DAT (Interim)

| Compound | HER effect + SAF (ZEAMA Abraxas; [3]) | Reduction [%] (ZEAMA Abraxas; [4]) | Reduction [Difference] (ZEAMA Abraxas; [4]) | HER effect (ZEAMA Abraxas; HER 8 g a.i./ha) | HER effect + SAF (ZEAMA Abraxas; [5]) | Reduction [%] (ZEAMA Abraxas; [6]) | Reduction [Difference] (ZEAMA Abraxas; [6]) | HER effect (ZEAMA Abraxas; HER 32 g a.i./ha) | other results |
| --- | --- | --- | --- | --- | --- | --- | --- | --- | --- |
| COCCOC(=O)C1C=CC(NC(=O)C2(CCl)CC(c3cc(F)cc(F)c3)=NO2)C1 (stereo not shown) [Example 1.1] | 20% | 78% | 73 | 93% | 45% | 53% | 50 | 95% | – |
| CC1(C(=O)NC2C=CC(C(=O)O)C2)CC(c2cc(F)cc(F)c2)=NO1 (stereo not shown) [Example 1.36] | – | – | – | – | – | – | – | – | Reduction [%] (TRZAS Triso; 11 DAT (Interim)): 29%; Reduction [Difference] (TRZAS Triso; 11 DAT (Interim)): 20; Reduction [%] (TRZAS Triso; 21 DAT (Final)): 64%; Reduction [Difference] (TRZAS Triso; 21 DAT (Final)): 45; HER effect + SAF (TRZAS Triso; 11 DAT (Interim)): 50%; HER effect + SAF (TRZAS Triso; 21 DAT (Final)): 25%; HER effect (TRZAS Triso; 11 DAT (Interim)): 70%; HER effect (TRZAS Triso; 21 DAT (Final)): 70%; Reduction [%] (HORVS Montoya; [7]): 44%; Reduction [Difference] (HORVS Montoya; [7]): 20; HER effect + SAF (HORVS Montoya; [7]): 25%; HER effect (HORVS Montoya; [7]): 45%; Reduction [%] (HORVS Montoya; [8]): 43%; Reduction [Difference] (HORVS Montoya; [8]): 30; HER effect + SAF (HORVS Montoya; [8]): 40%; HER effect (HORVS Montoya; [8]): 70% |
| CC1(C(=O)NC2COC(C(=O)OCc3cccc(F)c3)C2)CC(c2cc(F)cc(F)c2)=NO1 (mixture of isomers) [Example 1.76] | 33% | 63% | 57 | 90% | – | – | – | – | – |
| COCCOC(=O)C1C=CC(NC(=O)C2(C)CC(c3cc(Cl)cc(C#N)c3)=NO2)C1 (stereo not shown) [Example 1.5] | – | – | – | – | – | – | – | – | HER effect + SAF (ZEAMA Sileno [1]; [3]): 18%; Reduction [%] (ZEAMA Sileno [1]; [4]): 79%; Reduction [Difference] (ZEAMA Sileno [1]; [4]): 67; HER effect (ZEAMA Sileno [1]; HER 8 g a.i./ha): 85%; HER effect + SAF (ZEAMA Sileno [1]; [5]): 47%; Reduction [%] (ZEAMA Sileno [1]; [6]): 51%; Reduction [Difference] (ZEAMA Sileno [1]; [6]): 49; HER effect (ZEAMA Sileno [1]; HER 32 g a.i./ha): 96%; Reduction [%] (TRZAS Triso; 11 DAT (Interim)): 80%; Reduction [Difference] (TRZAS Triso; 11 DAT (Interim)): 20; HER effect + SAF (TRZAS Triso; 11 DAT (Interim)): 5%; HER effect (TRZAS Triso; 11 DAT (Interim)): 25%; Reduction [%] (ZEAMA Sileno [2]; 14 DAT): 50%; Reduction [Difference] (ZEAMA Sileno [2]; 14 DAT): 30; Reduction [%] (ZEAMA Sileno [2]; 26 DAT): 56%; Reduction [Difference] (ZEAMA Sileno [2]; 26 DAT): 25; HER effect + SAF (ZEAMA Sileno [2]; 14 DAT): 30%; HER effect + SAF (ZEAMA Sileno [2]; 26 DAT): 20%; HER effect (ZEAMA Sileno [2]; 14 DAT): 60%; HER effect (ZEAMA Sileno [2]; 26 DAT): 45% |
| C=CC1(C(=O)NC2C=C(C(=O)OCCOC)OC2)CC(c2cc(C)cc(F)c2)=NO1 (stereo not shown) [Example 1.89] | 3% | 90% | 27 | 30% | 17% | 62% | 28 | 45% | – |
| C=CC1(C(=O)NC2C=C(C(=O)OC)OC2)CC(c2cc(C)cc(C)c2)=NO1 (stereo not shown) [Example 1.90] | – | – | – | – | – | – | – | – | HER effect + SAF (ZEAMA Abraxas; HER 2 g a.i./ha + isoxadifen-ethyl 100 g a.i./ha): 5%; Reduction [%] (ZEAMA Abraxas; [9]): 80%; Reduction [Difference] (ZEAMA Abraxas; [9]): 20; HER effect (ZEAMA Abraxas; HER 2 g a.i./ha): 25% |
| C=CC1(C(=O)NC2COC(C(=O)OCc3ccc(OC)cc3)C2)CC(c2cc(C)cc(F)c2)=NO1 (mixture of isomers) [Example 1.86] | 12% | 63% | 20 | 32% | – | – | – | – | – |
| C=CC1(C(=O)NC2C=C(C(=O)OCC#N)OC2)CC(c2cc(F)cc(F)c2)=NO1 (stereo not shown) [Example 1.91] | – | – | – | – | – | – | – | – | Reduction [%] (TRZAS Triso; 21 DAT (Final)): 75%; Reduction [Difference] (TRZAS Triso; 21 DAT (Final)): 30; HER effect + SAF (TRZAS Triso; 21 DAT (Final)): 10%; HER effect (TRZAS Triso; 21 DAT (Final)): 40% |
| CSCCOC(=O)C1C=CC(NC(=O)C2(C(F)(F)F)CC(c3cc(F)cc(F)c3)=NO2)C1 (stereo not shown) [Example 1.7] | – | – | – | – | – | – | – | – | Reduction [%] (TRZAS Triso; 11 DAT (Interim)): 56%; Reduction [Difference] (TRZAS Triso; 11 DAT (Interim)): 25; HER effect + SAF (TRZAS Triso; 11 DAT (Interim)): 20%; HER effect (TRZAS Triso; 11 DAT (Interim)): 45%; Reduction [%] (HORVS Montoya; [10]): 50%; Reduction [Difference] (HORVS Montoya; [10]): 25; Reduction [%] (HORVS Montoya; [8]): 83%; Reduction [Difference] (HORVS Montoya; [8]): 25; HER effect + SAF (HORVS Montoya; [10]): 25%; HER effect + SAF (HORVS Montoya; [8]): 5%; HER effect (HORVS Montoya; [10]): 50%; HER effect (HORVS Montoya; [8]): 30% |
| C=CC1(C(=O)NC2COC(C(=O)OC)C2)CC(c2cc(C)cc(F)c2)=NO1 (mixture of isomers) [Example 1.71] | 17% | 71% | 41 | 58% | 35% | 62% | 56 | 91% | – |
| CC1(C(=O)NC2C=CC(C(=O)OCCCl)C2)CC(c2cc(F)cc(F)c2)=NO1 (mixture of isomers) [Example 1.47] | – | – | – | – | 38% | 39% | 24 | 62% | – |
| C=CC1(C(=O)NC2C=CC(C(=O)O)C2)CC(c2cc(F)cc(F)c2)=NO1 (stereo not shown) [Example 1.58] | 17% | 73% | 45 | 62% | 15% | 84% | 80 | 95% | – |
| C=CC1(C(=O)NC2CC=C(C(=O)OC)C2)CC(c2cc(F)cc(F)c2)=NO1 (mixture of isomers) [Example 1.60] | 20% | 64% | 35 | 55% | 57% | 39% | 37 | 94% | – |
| COC(=O)C1C=CC(NC(=O)C2(C(F)(F)F)CC(c3cc(C)cc(F)c3)=NO2)C1 (mixture of isomers) [Example 1.22] | – | – | – | – | 0% | 100% | 20 | 20% | – |
